# Results reported in patent US7354734B2, “Fungal proteins and nucleic acids encoding same” (priority 2003, dated 2008).
# Several values for one entry are separate records, joined by “and”; a condition that tells them apart may be missing. Equal entries are not always repeated. Where two headings read alike, the source gives them in different places.
# Legend:
# [1] = test system: gliadin 33mer (fragment 57-89 of gliadin MM1); assay: Digestion of gliadin 33mer (RP-HPLC, ESI-MS); type: biochemical, wheat
# [2] = target: ruLAP1 (Trichophyton rubrum, UniProt Q5QHG5); type: biochemical
# [3] = test system: fuLAP2; type: biochemical, Aspergillus fumigatus
# [4] = target: T1, pkLAP (microsomal LAP from porcine kidney) (Sus scrofa, UniProt P15145); assay: Effect of inhibitors and metallic cations on LAP activity (Leu-AMC); type: biochemical
# T1 construct: purchased Sigma; host or cells: porcine kidney
# T1 sequence (P15145 1-963): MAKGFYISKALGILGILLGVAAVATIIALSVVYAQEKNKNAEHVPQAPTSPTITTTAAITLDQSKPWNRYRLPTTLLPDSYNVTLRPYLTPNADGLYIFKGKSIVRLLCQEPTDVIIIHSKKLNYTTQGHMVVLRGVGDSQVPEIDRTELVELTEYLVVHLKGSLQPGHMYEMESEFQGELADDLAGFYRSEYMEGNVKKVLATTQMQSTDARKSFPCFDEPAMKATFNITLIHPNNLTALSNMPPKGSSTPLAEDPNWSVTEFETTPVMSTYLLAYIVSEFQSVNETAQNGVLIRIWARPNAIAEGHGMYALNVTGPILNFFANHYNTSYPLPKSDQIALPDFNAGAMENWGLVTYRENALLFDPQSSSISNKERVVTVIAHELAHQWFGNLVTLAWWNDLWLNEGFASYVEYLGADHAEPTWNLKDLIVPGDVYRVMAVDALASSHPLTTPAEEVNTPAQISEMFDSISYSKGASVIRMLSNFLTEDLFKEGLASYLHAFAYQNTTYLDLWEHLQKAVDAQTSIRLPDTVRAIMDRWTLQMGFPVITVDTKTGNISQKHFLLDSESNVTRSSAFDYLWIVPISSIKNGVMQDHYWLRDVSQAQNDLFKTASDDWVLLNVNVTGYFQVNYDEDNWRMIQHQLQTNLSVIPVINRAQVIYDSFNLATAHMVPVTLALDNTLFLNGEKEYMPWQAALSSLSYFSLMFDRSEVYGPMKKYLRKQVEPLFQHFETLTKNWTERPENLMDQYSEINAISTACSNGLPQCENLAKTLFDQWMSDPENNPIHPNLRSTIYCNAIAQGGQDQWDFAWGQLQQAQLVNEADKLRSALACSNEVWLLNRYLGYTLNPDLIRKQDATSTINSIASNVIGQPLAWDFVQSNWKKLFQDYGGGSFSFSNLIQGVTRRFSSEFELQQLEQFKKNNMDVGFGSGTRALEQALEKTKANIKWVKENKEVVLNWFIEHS
# [5] = target: fuLAP1 (Aspergillus fumigatus, UniProt Q5VJG6); assay: biochemical; type: biochemical
# [6] = target: ruLAP2 (Trichophyton rubrum, UniProt Q5QHG6); type: biochemical
# [7] = cation salt 0.5 mM, Leu-MCA substrate, 15 min pre-incubation
# [8] = cation salt 1 mM, Leu-MCA substrate, 15 min pre-incubation
# [9] = Leu-AMC, cations 0.5 mM and 1 mM
# [10] = inhibitor 20 μM, Leu-MCA substrate, 15 min pre-incubation
# Sequence of fuLAP1 (Q5VJG6 16-388): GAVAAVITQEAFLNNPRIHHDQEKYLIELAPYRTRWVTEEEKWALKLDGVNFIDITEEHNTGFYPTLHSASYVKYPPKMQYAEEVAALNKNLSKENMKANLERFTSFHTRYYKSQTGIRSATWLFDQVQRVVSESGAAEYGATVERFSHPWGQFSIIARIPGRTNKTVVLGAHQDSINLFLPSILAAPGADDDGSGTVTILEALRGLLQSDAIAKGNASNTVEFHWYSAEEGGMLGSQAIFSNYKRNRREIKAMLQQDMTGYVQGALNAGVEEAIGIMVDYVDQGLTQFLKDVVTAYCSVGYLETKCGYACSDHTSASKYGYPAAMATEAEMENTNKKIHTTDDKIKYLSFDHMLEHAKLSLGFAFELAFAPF
# Sequence of ruLAP1 (Q5QHG5 21-373): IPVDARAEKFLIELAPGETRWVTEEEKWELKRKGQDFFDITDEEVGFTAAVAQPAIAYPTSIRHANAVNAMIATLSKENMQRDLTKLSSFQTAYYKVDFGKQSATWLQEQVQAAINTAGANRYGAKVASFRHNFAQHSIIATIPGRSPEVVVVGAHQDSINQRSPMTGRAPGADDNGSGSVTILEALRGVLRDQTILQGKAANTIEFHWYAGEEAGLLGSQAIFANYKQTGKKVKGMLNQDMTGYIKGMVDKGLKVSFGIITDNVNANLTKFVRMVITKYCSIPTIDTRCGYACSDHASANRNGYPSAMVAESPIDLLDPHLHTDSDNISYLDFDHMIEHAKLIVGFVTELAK
# Sequence of ruLAP2 (Q5QHG6 20-495): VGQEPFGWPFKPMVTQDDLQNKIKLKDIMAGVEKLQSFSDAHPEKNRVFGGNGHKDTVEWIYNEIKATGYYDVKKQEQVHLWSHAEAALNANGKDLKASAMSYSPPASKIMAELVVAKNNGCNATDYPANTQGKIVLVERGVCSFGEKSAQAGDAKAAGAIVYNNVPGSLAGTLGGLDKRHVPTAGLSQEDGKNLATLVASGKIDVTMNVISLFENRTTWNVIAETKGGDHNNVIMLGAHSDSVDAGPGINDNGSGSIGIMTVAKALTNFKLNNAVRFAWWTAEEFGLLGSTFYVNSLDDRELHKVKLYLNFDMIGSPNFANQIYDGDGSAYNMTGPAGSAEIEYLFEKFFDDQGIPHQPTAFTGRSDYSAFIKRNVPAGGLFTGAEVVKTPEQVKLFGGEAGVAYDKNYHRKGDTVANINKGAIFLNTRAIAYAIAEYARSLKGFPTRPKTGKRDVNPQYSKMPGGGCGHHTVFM
Molecule,ruLAP1 activity as percentage of control reaction without any cation [2],"fuLAP2 activity as percentage of control reaction without any cation [3, 7] [%]","fuLAP2 activity as percentage of control reaction without any cation [3, 8] [%]","pkLAP activity as percentage of control reaction without any cation [4, 7] [%]","pkLAP activity as percentage of control reaction without any cation [4, 8] [%]","fuLAP1 activity as percentage of control reaction without any cation [5, 7] [%]","fuLAP1 activity as percentage of control reaction without any cation [5, 8] [%]","ruLAP2 activity as percentage of control reaction without any cation [6, 7] [%]","ruLAP2 activity as percentage of control reaction without any cation [6, 8] [%]",also measured
Chymotrypsin,,,,,,,,,,"digestion of the peptide, with addition of ruLAP2 [1]: not able to breakdown; digestion of gliadin 33mer, enzyme alone ([1]; 37° C.): not able to breakdown; digestion of the peptide, with addition of DPPIV ([1]; same conditions, E/S (w:w) 1:50): not able to breakdown"
"[Cl-].[Cl-].[Zn+2] [Zn, ZnCl2]",43.0% and 68.9%,51.4,119.5,437.6,297.9,60.7,53.2,77.9,88.9,"effect of divalent cation on pkLAP activity [4, 9]: highly activated"
"[Ca+2].[Cl-].[Cl-] [Ca^++, CaCl2]",151.7% and 175.6%,110.0,165.4,177.4,161.8,54.9,43.3,126.6,141.9,"effect of divalent cation on fuLAP2 activity [3, 9]: activated; effect of divalent cation on fuLAP1 activity [5, 9]: inhibited"
Cc1ccc(S(=O)(=O)N[C@@H](Cc2ccccc2)C(=O)CCl)cc1 [TPCK],,,,,,,,,,"effect of inhibitor on ruLAP1 activity ([2]; Leu-AMC 5 mM): no clear inhibitory effects; ruLAP1 activity as percentage of control reaction without inhibitor [2, 10]: 68%; effect of inhibitor on fuLAP2 activity ([3]; Leu-AMC 5 mM): no clear inhibitory effects; fuLAP2 activity as percentage of control reaction without inhibitor [3, 10]: 87%; effect of inhibitor on pkLAP activity ([4]; Leu-AMC 5 mM): no clear inhibitory effects; pkLAP activity as percentage of control reaction without inhibitor [4, 10]: 108%; effect of inhibitor on fuLAP1 activity ([5]; Leu-AMC 5 mM): no clear inhibitory effects; fuLAP1 activity as percentage of control reaction without inhibitor [5, 10]: 95%; effect of inhibitor on ruLAP2 activity ([6]; Leu-AMC 5 mM): no clear inhibitory effects; ruLAP2 activity as percentage of control reaction without inhibitor [6, 10]: 79%"
